# Experimental data as given in patent US6762189B1, “5-pyrimidinecarboxamide derivatives and the pharmaceutical compositions containing said derivatives” (Dong Wha Pharm. Ind. Co., Ltd., priority 1999, dated 2004).
# How the values were obtained:
# [1] = biological target: T1, HBV polymerase (Hepatitis B virus genotype A2 subtype adw2, UniProt P03159); experiment: In vitro reverse transcription activity of HBV polymerase (ELISA-type, DIG/biotin nucleotides); format: biochemical; conditions: read-out: Inhibition activity on HBV-RT (%); for inhibition at 0.01 µg/mL: 0.01 μg/ml test compound; for inhibition at 0.1 µg/mL: 0.1 μg/ml test compound; for inhibition at 1 µg/mL: 1 μg/ml test compound
# T1 construct: made in house; host or cells: E. coli
# Protocol: The following in vitro experiment was performed to determine the effect of the compounds of formula 1 on the activity of HBV polymerase during reverse transcription.
# The present inventors submitted application for a patent concerning HBV polymerase genetically expressed in and separated from E. coli, the process of its preparation, and the method to measure the enzyme activities (KR 94-3918, KR 96-33998). In the present experiments HBV polymerase was used which had been expressed in E. coli as stated above.
# The method used in the present invention to measure in vitro reverse transcribing activities of HBV polymerase is as follows. Basic principles are the same as for ELISA. Nucleotides with biotin or digoxigenin group attached are included as substrates and anti-DIG antibodies attached to peroxidase enzyme recognize the polymerized substrates.
# To the wells coated with streptavidin, 20 μl of HBV polymerase, 20 μl of reaction mixture (10 μM each of DIG-UTP and Biotin-UTP, 46 mM Tris-HCl, 266 mM KCl, 27.5 mM MgCl2, 9.2 mM DTT substrate/primer hybrid), and 20 μl of test compound (added to 1, 0.1, and 0.01 μg/ml) were added and allowed to react a 22° C. for 15 hrs. During this reaction, HBV polymerase catalyzes DNA synthesis and digoxigenin and biotin attached to nucleotides form bonds with streptavidin coated on the bottom of wells. When the reaction was done, each well was washed with 250μl of cleaning buffer (pH 7.0) for 30 seconds, which was repeated five times to remove remaining impurities. 200 μl of anti-DIG-POD antibody was added to each well and allowed to react for 1 hr at 37° C., and the wells were washed with cleaning buffer to remove impurities. 200μl each of ABTS™, a substrate of peroxidase, was then added and allowed to react at room temperature for 30 min. Absorbance was measured at 405 nm using ELISA reader.
# The percentage of reduction in HBV polymerase activities for reverse transcription was calculated using the group without test compound as a control and the results are shown in Table 3.
# [2] = test system: HBV; experiment: Inhibition of HBV proliferation in HBV producing cell line HepG 2.2.15 (competitive PCR of culture supernatant); format: cell-based, Hepatitis B virus; conditions: Hepatitis B virus, HepG2.2.15, 168 h, HepG 2.2.15, one week, read-out: Inhibitory effect on the HBV proliferation, Inhibition activity on HBV-RT (%); for inhibition at 0.01 µg/mL: 0.01 μg/ml; for inhibition at 0.1 µg/mL: 0.1 μg/ml; for inhibition at 1 µg/mL: 1 μg/ml
# Protocol: The following experiment was performed to determine inhibitory effects of compounds of formula on the proliferation of HBV producing cell line.
# To test for antiviral effect, replication and proliferation of HBV were measured in HepG 2.2.15, a human liver cancer cell line.
# The cell concentration was adjusted to 1×10^5 cells/ml and 1 ml was added to each well of a 24-well cell culture plate, which was then kept in a culture box for 3-4 days at 37° C. under 5% CO2 until cells grew sufficiently, changing culture medium everyday. When the cells matured sufficiently, the test compounds were added to the final concentrations of 0.01, 0.1, and 1 μg/ml. One week after the addition of test compounds, he culture solution was centrifuged at 5,000 rpm for 10 min. 25 μl of supernatant was transferred to a new tube and 5 μl of lysis solution [0.54N NaOH, 0.06% NP40] was added to each tube. After keeping the tube at 37° C. for 1 hr, 30 μl . of neutralizing solution [0.09NHCl, 0.1MTris-HCl, pH7.4] was added as a reaction solution for competitive polymerase chain reaction (PCR).
# PCR was performed using genetic sequence of HBV core protein as a matrix. PCR reaction was carried out by adding 1 unit of Taq polymerase enzyme to 25 pmol of each primer, 250 μM dNTP, 5 μl of PCR reaction solution [0.54N NaOH, 0.06% NP40, 0.09N HCl, 0.1M Tris-HCl, pH 7.4].
# DNA polymerized by PCR was electrophoresed on Agarose gel and quantitatively analyzed using an image analyzer (Gel Dcc 1000, Bio-Rad) in order to evaluate the effect of compounds of the present invention on the reduction of HBV proliferation.
# 3TC (lamivudine) was used as a positive control at the same concentrations as those of the test compounds. The percentage of reduction in HBV proliferation was calculated using the group without test compound as a control and the results are represented in Table 4.
# T1 sequence (P03159 whole entry): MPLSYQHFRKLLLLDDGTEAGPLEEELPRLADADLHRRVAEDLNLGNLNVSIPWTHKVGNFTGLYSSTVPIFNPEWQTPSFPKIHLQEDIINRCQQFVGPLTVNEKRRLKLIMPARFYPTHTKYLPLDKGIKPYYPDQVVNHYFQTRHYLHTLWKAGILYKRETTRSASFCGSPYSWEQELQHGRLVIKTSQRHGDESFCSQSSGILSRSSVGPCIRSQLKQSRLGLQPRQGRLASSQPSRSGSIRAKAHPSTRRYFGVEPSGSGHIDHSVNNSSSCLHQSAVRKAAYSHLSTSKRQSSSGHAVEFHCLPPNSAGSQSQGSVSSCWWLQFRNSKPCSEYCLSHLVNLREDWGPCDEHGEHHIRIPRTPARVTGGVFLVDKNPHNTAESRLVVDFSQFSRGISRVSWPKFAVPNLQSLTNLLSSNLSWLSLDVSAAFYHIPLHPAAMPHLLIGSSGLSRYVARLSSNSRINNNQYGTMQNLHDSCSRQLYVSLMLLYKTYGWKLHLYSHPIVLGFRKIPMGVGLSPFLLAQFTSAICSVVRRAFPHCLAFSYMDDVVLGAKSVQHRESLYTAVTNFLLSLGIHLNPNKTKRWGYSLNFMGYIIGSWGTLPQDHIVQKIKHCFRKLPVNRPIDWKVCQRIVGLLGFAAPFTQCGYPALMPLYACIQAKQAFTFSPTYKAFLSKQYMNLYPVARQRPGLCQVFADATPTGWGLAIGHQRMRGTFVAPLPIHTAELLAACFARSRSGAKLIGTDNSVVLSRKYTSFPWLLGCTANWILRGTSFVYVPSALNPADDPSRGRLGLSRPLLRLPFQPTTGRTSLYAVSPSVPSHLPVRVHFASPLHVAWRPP
compound,measurement,setting,value
"CSc1ncc(C(=O)NCCc2ccccn2)c(Nc2ccc3cn[nH]c3c2)n1 [Example 28, 4-(1H-6-indazolylamino)-2-methylthio-N-[2-(2-pyridyl)ethyl]-5-pyrimidinecarboxamide]",melting point,,230 to 231 °C
same,inhibition at 0.01 µg/mL,[1],52%
same,inhibition at 0.1 µg/mL,[1],70%
same,inhibition at 1 µg/mL,[1],95%
same,inhibition at 0.01 µg/mL,[2],44%
same,inhibition at 0.1 µg/mL,[2],68%
same,inhibition at 1 µg/mL,[2],93%
"CSc1ncc(C(=O)N2CCN(C)CC2)c(Nc2ccc3cn[nH]c3c2)n1 [Example 32, 4-(1H-6-indazolylamino)-5-[(4-methyl-1-piperazinyl)-carbonyl]-2-methylthiopyrimidine]",melting point,,102 to 106 °C
same,inhibition at 0.01 µg/mL,[1],26%
same,inhibition at 0.1 µg/mL,[1],40%
same,inhibition at 1 µg/mL,[1],62%
"CSc1ncc(C(=O)N2CCN(CCO)CC2)c(Nc2ccc3cn[nH]c3c2)n1 [Example 34, 5-[[4-(2-hydroxyethyl)-1-piperazinyl]carbonyl]-4-(1H-6-indazolylamino)-2-methylthiopyrimidine]",melting point,,114 to 117 °C
same,inhibition at 0.01 µg/mL,[1],15%
same,inhibition at 0.1 µg/mL,[1],43%
same,inhibition at 1 µg/mL,[1],59%
"COC(=O)[C@@H](NC(=O)c1cnc(SC)nc1Nc1ccc2[nH]ncc2c1)[C@@H](C)O [Example 23, 4-(1H-5-indazolylamino)-N-[(1S)-1-(methoxycarbonyl)-(2R)-2-hydroxypropyl]-2-methylthio-5-pyrimidinecarboxamide]",melting point,,227 to 232 °C
same,inhibition at 0.01 µg/mL,[1],18%
same,inhibition at 0.1 µg/mL,[1],40%
same,inhibition at 1 µg/mL,[1],51%
"CSc1ncc(C(=O)N(C)C)c(Nc2ccc3[nH]ncc3c2)n1 [Example 15, N,N-dimethyl-4-(1H-5-indazolylamino)-2-methylthio-5-pyrimidinecarboxamide]",melting point,,101 to 105 °C
same,inhibition at 0.01 µg/mL,[1],42%
same,inhibition at 0.1 µg/mL,[1],61%
same,inhibition at 1 µg/mL,[1],77%
same,inhibition at 0.01 µg/mL,[2],25%
same,inhibition at 0.1 µg/mL,[2],52%
same,inhibition at 1 µg/mL,[2],70%
"CSc1ncc(C(=O)NCCN(C)C)c(Nc2ccc3[nH]ncc3c2)n1 [Example 17, N-[2-(dimethylamino)ethyl]-4-(1H-5-indazolylamino)-2-methylthio-5-pyrimidinecarboxamide]",melting point,,111 to 114 °C
same,inhibition at 0.01 µg/mL,[1],15%
same,inhibition at 0.1 µg/mL,[1],51%
same,inhibition at 1 µg/mL,[1],80%
"CSc1ncc(C(=O)NCc2cccnc2)c(Nc2ccc3cn[nH]c3c2)n1 [Example 26, 4-(1H-6-indazolylamino)-2-methylthio-N-(3-pyridyl)methyl-5-pyrimidinecarboxamide]",melting point,,253 to 256 °C
same,inhibition at 0.01 µg/mL,[1],55%
same,inhibition at 0.1 µg/mL,[1],79%
same,inhibition at 1 µg/mL,[1],98%
same,inhibition at 0.01 µg/mL,[2],47%
same,inhibition at 0.1 µg/mL,[2],75%
same,inhibition at 1 µg/mL,[2],97%
"CSc1ncc(C(=O)NN2CCN(C)CC2)c(Nc2ccc3cn[nH]c3c2)n1 [Example 22, 4-(1H-6-indazolylamino)-N-(4-methyl-1-piperazinyl)2-methylthio-5-pyrimidinecarboxamide]",melting point,,244 to 247 °C
same,inhibition at 0.01 µg/mL,[1],28%
same,inhibition at 0.1 µg/mL,[1],46%
same,inhibition at 1 µg/mL,[1],72%
"COC(=O)[C@@H](NC(=O)c1cnc(SC)nc1Nc1ccc2cn[nH]c2c1)[C@@H](C)O [Example 24, 4-(1H-6-indazolylamino)-N-[(1S)-1-(methoxycarbonyl)-(2R)-2-hydroxypropyl]-2-methylthio-5-pyrimidinecarboxamide]",melting point,,226 to 228 °C
same,inhibition at 0.01 µg/mL,[1],50%
same,inhibition at 0.1 µg/mL,[1],63%
same,inhibition at 1 µg/mL,[1],82%
"CSc1ncc(C(=O)NCc2cccnc2)c(Nc2ccc3[nH]ncc3c2)n1 [Example 25, 4-(1H-5-indazolylamino)-2-methylthio-N-(3-pyridyl)methyl-5-pyrimidinecarboxamide]",melting point,,268 to 270 °C
same,inhibition at 0.01 µg/mL,[1],53%
same,inhibition at 0.1 µg/mL,[1],76%
same,inhibition at 1 µg/mL,[1],97%
same,inhibition at 0.01 µg/mL,[2],40%
same,inhibition at 0.1 µg/mL,[2],65%
same,inhibition at 1 µg/mL,[2],92%
"COCCNC(=O)c1cnc(SC)nc1Nc1ccc2cn[nH]c2c1 [Example 14, 4-(1H-6-indazolylamino)-N-(2-methoxyethyl)-2-methylthio-5-pyrimidinecarboxamide]",melting point,,225 to 228 °C
same,inhibition at 0.01 µg/mL,[1],25%
same,inhibition at 0.1 µg/mL,[1],42%
same,inhibition at 1 µg/mL,[1],60%
"CSc1ncc(C(=O)NN2CCN(C)CC2)c(Nc2ccc3[nH]ncc3c2)n1 [Example 21, 4-(1H-5-indazolylamino)-N-(4-methyl-1-piperazinyl)-2-methylthio-5-pyrimidinecarboxamide]",melting point,,251 to 253 °C
same,inhibition at 0.01 µg/mL,[1],40%
same,inhibition at 0.1 µg/mL,[1],54%
same,inhibition at 1 µg/mL,[1],78%
"CSc1ncc(C(=O)N2CCN(C)CC2)c(Nc2ccc3[nH]ncc3c2)n1 [Example 31, 4-(1H-5-indazolylamino)-5-[(4-methyl-1-piperazinyl)-carbonyl]-2-methylthiopyrimidine]",melting point,,153 to 155 °C
same,inhibition at 0.01 µg/mL,[1],43%
same,inhibition at 0.1 µg/mL,[1],58%
same,inhibition at 1 µg/mL,[1],82%
"CSc1ncc(C(=O)NCCc2ccccn2)c(Nc2ccc3[nH]ncc3c2)n1 [Example 27, 4-(1H-5-indazolylamino)-2-methylthio-N-[2-(2-pyridyl)ethyl]-5-pyrimidinecarboxamide]",melting point,,220 to 223 °C
same,inhibition at 0.01 µg/mL,[1],48%
same,inhibition at 0.1 µg/mL,[1],60%
same,inhibition at 1 µg/mL,[1],88%
same,inhibition at 0.01 µg/mL,[2],38%
same,inhibition at 0.1 µg/mL,[2],55%
same,inhibition at 1 µg/mL,[2],84%
"CSc1ncc(C(=O)NCCCn2ccnc2)c(Nc2ccc3cn[nH]c3c2)n1 [Example 30, N-[3-(1H-1-imidazolyl)propyl]-4-(1H-6-indazolylamino)-2-methylthio-5-pyrimidinecarboxamide]",melting point,,230 to 232 °C
same,inhibition at 0.01 µg/mL,[1],32%
same,inhibition at 0.1 µg/mL,[1],58%
same,inhibition at 1 µg/mL,[1],91%
